Results as given in patent US6153434A, “Methods for the intracellular delivery of substances” (University of Florida, priority 1999, dated 2000).
Read-outs that look alike come from different tables or passages of the source.

Tests used:
CHO cells [1] = test: Transfection of pGL3-luciferase plasmid; assay type: cell-based, Chinese hamster
Experimental: (§1) FIGS. 5A and 5B show a comparison of the transfection of pGL3-luciferase plasmid by CHDTAEA/DOPE, CHSTAEA/DOPE, and DC-Chol in CHO and SKnSH cells. A fixed dose 2 μg/well of pGL3 DNA was mixed with increasing weight ratios of cationic liposomes (calculation based on cationic lipid) and used for transfection. FIG. 5A: Transfection in CHO cells, FIG. 5B: Transfection in SKnSH cells. .diamond-solid.CHDTAEA/DOPE, .box-solid.CHSTAEA/DOPE; .tangle-solidup.DC-Chol/DOPE. Data is shown as mean (S. D. (n=3).
(§2) Cell culture and gene transfection using CHDTAEA and CHSTAEA: Chinese hamster ovary (CHO) and SKnSH cells were obtained from American Tissue Type Collection (Rockville, Md.). […] DNA/liposome complexes in 100 (L of serum free media were added to each well and incubated for 4.5 hours. After the 4.5-hour transfection time, the transfection media were changed to growth media and cells were incubated for another 24 hours. Luciferase activity was measured using a standard luciferase assay (Thierry, A. R., P. Rabinovich, B. Peng, L. C. Mahan, J. L. Bryant, R. C. Gallo (1997) Gene Ther 4:226-237). Luciferase activity in transfected cells was expressed as RLU per well. All conditions for transfection were strictly kept the same for each different kind of liposomes. Experiments were repeated at least twice, and experiments were done in triplicate within a given series.

SKnSH cells [2] = test: Transfection of pGL3-luciferase plasmid; assay type: cell-based
Experimental: as §1, §2

plasmid DNA = test: Dissociation of DNA from DNA/liposome complexes by glutathione, agarose gel electrophoresis; assay type: physicochemical
Experimental: Dissociation of DNA from DNA/liposome complexes by glutathione: One μg of plasmid DNA was dissolved in 10 (L of phosphate-buffer saline (PBS). Cationic liposomes […] or CHSTAEA/DOPE were added to pDNA solution at the increasing weight ratios of 2/1, respectively. All calculations of the weight of liposomes in this paper were based on the weight of cationic lipids only. After the complexes were incubated for 30 minutes at room temperature, 10 (L of 20 mM of glutathione in PBS (pH=7.3) was added to the mixture to reach a final concentration of glutathione of 10 mM. The mixtures were incubated at 37° C. for 20 hours. Released DNA was visualized by 1% agarose gel electrophoresis.
DNA was complexed with a disulfide cationic liposome CHDTAEA/DOPE or its non-disulfide cationic liposome analog CHSTAEA/DOPE at the cationic lipid to DNA ratio of 2/1. […] In the presence of 10 mM of glutathione, >50% of DNA was released from complexes after the incubation. […] The complexes with the ratios of cationic liposome/DNA from 3/1 to 5/1 were also tested in the release assay with similar same results.

CHO and SKnSH cells = test: Cytotoxicity of liposome/DNA complexes, both cell lines (FIG. 6); assay type: cell-based
Experimental: FIGS. 6A and 6B show the toxicity assays of cytotoxicity of the liposome/DNA complexes was studied in CHO and SKnSH cells. A fixed dose of 1 μg/well of pDNA was mixed with increasing amount of cationic liposomes and used in the toxicity assay. Cell viability was calculated as percentage of survival cells as stated in the Methods section. FIG. 6A: Toxicity in CHO cells. FIG. 6B: Toxicity in SKnSH cells. .diamond-solid.CHDTAEA/DOPE, .box-solid.CHSTAEA/DOPE; .tangle-solidup.DC-Chol/DOPE. Data is shown as mean (S. D. (n=3).
Toxicity Assay of CHDTAEA, CHSTAEA and DC-Chol: The toxicity of CHDTAEA/DOPE, CHSTAEA/DOPE and DC-Chol/DOPE in the CHO and SKnSH cell line was determined using a CARE-LASS (a calcein release assay). Before the assay, cells were plated in a 96 well plate (1(10^5 cells/well) and grown to 60-80% confluence overnight. To test the toxicity of the DNA/liposome complexes, a fixed amount of DNA (1 μg/well) was used to complex with increasing amount of liposomes. The ratios of DNA to liposome of different treatments were the same as the ratios used in transfection studies. The cytotoxicity of three liposomes were measured and expressed according to our previous procedure (Tang, F., J. A. Hughes (1998) Biochem Biophys Res Commun 242:141-145). Each experiment was performed in triplicate and repeated at least twice.

CHO cells [3] = test: Luciferase gene transfection (second set of experiments); assay type: cell-based, Chinese hamster
Experimental: (§3) When DNA transfection was carried out in serum free media, the DNA/liposome complexes usually incubated with cells for about 4-5 hours. […] Biophys. Acta 1111, 239-246). For gene transfection in growth media containing 10% FBS, the toxicity of complexes may be alleviated, and also the transfection may be inhibited by enzymes or slowed down by negatively charged macromolecules.
Biophys. Acta 1111, 239-246).

[4] = Aggregation of transfection complexes during transfection; assay type: physicochemical
Experimental: The lack of physical stability of liposome/DNA complexes affects the gene transfection activity (Caplen, N. J., E. Kinrade, F. Sorgi, X Gao, D. Gruenert, C. Couttelle, L. Huang, E. W . F. W. Alton, R. Williamson (1995) Gene Ther. 2:603). […] The interaction force between primary amino groups and DNA is not as strong as the interaction force of a quaternary amino group with DNA and is dependent on the local environment.
as §3

CHO cells [5] = test: Transfection efficiency assay (green fluorescence protein, pUF2 DNA); assay type: cell-based, Chinese hamster; conditions: optimal transfection ratio
Experimental: Transfection efficiency assay: The optimal weight ratio for transfection of each liposome was used. […] Complexes were incubated with CHO cells in serum free media for 4.5 hour then the media was changed to growth media and further incubated for 20 hours. Transfection efficiency was determined by counting the number of green fluorescence cells compared with all cells in the field of vision under (20 magnification using a Nikon Diaphot inverted microscope). Each transfection was done in triplicate and three separate counts were made for each well.

293 cells = test: Luciferase gene transfection; assay type: cell-based
SKnSH cells [6] = test: Luciferase gene transfection; assay type: cell-based
[7] = system: COS 1 cells and CHO cells; test: Luciferase gene transfection (second set of experiments), COS 1 and CHO; assay type: cell-based; conditions: serum free media
Experimental: (§4) In another set of experiments COS 1 and Chinese hamster ovary (CHO) cells were maintained in DMEM (high glucose) and (-MEM) respectively, and supplemented with 10% fetal bovine serum (FBS) and antibiotics (penicillin 100 g/ml and streptomycin 100 μg/ml). All cells were kept in 5% CO2 and at 37° C. in humidified air. Cell lines were cultured and seeded in 24 well plates (2×10^5), and grown to 60-80% confluence in 1 ml of media with serum. DNA/lipid complexes were made and incubated at room temperature in serum free media for 5-10 minutes and used for transfection. Before transfection, growth media containing serum was changed to serum free media and for the experiment to test serum sensitivity, growth media were changed to fresh growth media and the transfection mixtures were added to the cells. After a certain period of time for the specific experiments, the media was changed to growth media containing serum, and the cells were grown for another 48 hours. Following transfection and incubation, cells were rinsed twice with phosphate buffer saline. 100 μL of luciferase lysis buffer (0.1 M potassium phosphate buffer pH 7.8, 2 mM EDTA, 1% Triton X-100, 1 mM DTT) was added to the cells. The cells were lysed with shaking at room temperature for 15 minutes. Luciferase activity was quantified by using a Monolight 2010 Luminometer. 100 µl of luciferase assay buffer (30 mM tricine, 3 mM ATP, 15 mM MgSO4, 10 mM DDT, pH=7.8) and 2 μL of cell lysate were added to a 100 l injection of 1 mM D-luciferin, pH=6.3 (Molecular Probes). The light emission over a 10 second reaction period was integrated. […] 2 l of cells lysate was used for luciferase assay. The total protein concentration in the supernatant was measured by the BCA protein assay reagent (Pierce, Rockford, Ill.). Luciferase activity in cultured cells was expressed as RLU per mg of protein. Each experiment was repeated at least twice, and within in a series, experiments were done in triplicate.
(§5) Comparison experiments were done by using a fixed amount of DNA (3 g/well). Transfection activity of six ratios of cationic lipid to DNA: 1/1, 2/1, 3/1, 4/1, 8/1, and 10/1 (w/w) were tested in COS 1 cells and CHO cells. […] Since serum was reported to decrease the transfection activity of some cationic liposomes, transfection was studied both in serum free media and growth media containing 10% of FBS.

COS-1 cells = test: Luciferase gene transfection; assay type: cell-based
COS 1 cells = test: Luciferase gene transfection (second set of experiments)
Experimental: as §4, §5

[8] = CHO cells, growth media containing 10% FBS
[9] = CHO, serum free, optimal ratio of each liposome
[10] = weight ratio 10/1 (charge ratio 6/1(+/-))

CC(C)CCC[C@@H](C)[C@H]1CC[C@H]2[C@@H]3CC=C4C[C@@H](OC(=O)CSSCC(=O)NCCN(CCN)CCN)CC[C@]4(C)[C@H]3CC[C@]12C [CHDTAEA, Cholesteryl hemidithiodiglycolyl tris(aminoethyl)amine]
transfection activity vs non-disulfide analog CHSTAEA (CHO cells [1]): greater transfection activity than its non-disulfide analog CHSTAEA | transfection activity vs non-disulfide analog CHSTAEA (SKnSH cells [2]): greater transfection activity than its non-disulfide analog CHSTAEA | release of complexed DNA (plasmid DNA; presence of glutathione): released more than half of complexed DNA

CC(C)CCC[C@@H](C)[C@H]1CC[C@H]2[C@@H]3CC=C4C[C@@H](OC(=O)CCC(=O)NCCN(CCN)CCN)CC[C@]4(C)[C@H]3CC[C@]12C [CHSTAEA, Cholesteryl hemisuccinyl tris(aminoethyl)amine]
cytotoxicity vs CHDTAEA (CHO and SKnSH cells): much greater cytotoxicity | release of DNA from complexes (plasmid DNA; in both reductive and non-reductive environments, 20 hours): did not release DNA at any conditions after incubation for 20 hours

CC(C)CCC[C@@H](C)[C@H]1CC[C@H]2[C@@H]3CC=C4C[C@@H](OC(=O)NCCN(C)C)CC[C@]4(C)[C@H]3CC[C@]12C [DC-Chol, Cholesteryl N-(dimethylaminoethyl)carbamate, reference compound]
cytotoxicity vs CHDTAEA (CHO and SKnSH cells; FIG. 6): much greater cytotoxicity

CCCCCCCC/C=C\CCCCCCCC(=O)OC[C@H](COC(=O)CCC(=O)OCCSSCCOC(=O)C(N)CCCN)OC(=O)CCCCCCC/C=C\CCCCCCCC (some centres unmarked) [DOGSDSO, 1',2'-dioleoyl-sn-glycero-3'-succinyl-2-hydroxyethyl disulfide ornithine conjugate]
gene expression on further increase of DNA to 7 μg (CHO cells [3]; CHO): decrease of gene expression (p<0.0232) | gene expression, 5 μg vs 6 μg of DNA (CHO cells [3]; CHO): no significant difference of gene expression between the treatments of 5 μg of DNA and 6 μg of DNA (p>0.6528) | luciferase gene expression, 5 μg of DNA, vs 7 μg of DNA by DOGSHDO (CHO cells [3]; CHO): 14 times higher | transfection time of highest transfection activity (CHO cells [3]; [8]): 12 h | luciferase gene expression (CHO cells [3]; CHO, 5 μg of DNA): 9.03E+08 | optimal transfection activity, times higher than DOTAP or DOGSHDO (CHO cells [3]; CHO, growth media with serum): 3 times | transfection efficiency vs DOGSHDO (CHO cells [3]; CHO, lipid/DNA 10/1): higher transfection efficiency | transfection activity, times higher than DOGSHDO (CHO cells [3]; [9]): 3 times | transfection activity, times higher than DOTAP (CHO cells [3]; [9]): 2 times | amount of DNA at saturation of system (CHO cells [3]; CHO, transferred by 50 μg of DOGSDSO): 5 µg | aggregation of transfection complexes [4, 10]: did not aggregate during transfection | transgene expression efficiency (green fluorescence protein) (CHO cells [5]): 20-25% | effect on transfection activity compared to DOGSHDO (293 cells): greater than 50 fold | increase in transfection activity compared to DOGSHDO (SKnSH cells [6]): 4 fold | effect of further increase of liposome amount above 10/1 [7]: caused cytotoxicity and decreased the transfection activity | optimal weight ratio of cationic lipid to DNA in transfection [7]: 10/1 | effect on transfection activity compared to DOGSHDO (COS-1 cells): greater than 50 fold | transfection activity in the presence of serum (COS 1 cells; 10% FBS, COS-1 cells): equally active in the presence of 10% FBS | luciferase gene expression, 2 g of pDNA, vs 7 g of pDNA with DOGSHDO (COS 1 cells; COS 1): 3 time higher | luciferase gene expression (COS 1 cells; COS 1, 2 g of pDNA): 1.18E+09 | transfection activity in growth media vs serum free media (COS 1 cells; COS 1, 12 hours): comparable to transfection activity in serum free media | transfection activity (luciferase) (COS 1 cells; COS 1, growth media (10% FBS), 12 hours): 5.9×10^8 RLU/mg protein | highest transfection activity, times higher than DOGSHDO (COS 1 cells; COS 1, growth media with serum): 3 times | highest transfection activity, times higher than DOTAP (COS 1 cells; COS 1, growth media with serum): 2 times | amount of DNA at saturation of system (COS 1 cells; COS 1, lipid/DNA 10/1): 2 g | transgene expression on increase of DNA from 2 g to 7 g (COS 1 cells; COS 1, lipid/DNA 10/1): no significant increase of transgene expression (p>0.2319) | transfection activity, times higher than DOGSHDO (COS 1 cells; COS 1, serum free, optimal ratio of each liposome): 11 times | transfection activity, times higher than DOTAP (COS 1 cells; COS 1, serum free, optimal ratio, DOTAP at 1:1): 6 times | amount of DNA at saturation of system (COS 1 cells; COS-1 cells, optimal DNA/liposome ratio): 2e-06 g | expression of luciferase at lipid/DNA ratios 1/1, 2/1, 3/1, 4/1 (w/w) (COS 1 cells; growth media with serum): not statistically different (p>0.2782)

CCCCCCCC/C=C\CCCCCCCC(=O)OCC(COC(=O)CCC(=O)OCCCCCCOC(=O)[C@@H](N)CCCN)OC(=O)CCCCCCC/C=C\CCCCCCCC (some centres unmarked) [DOGSHDO, 1',2'-dioleyl-sn-glycero-3'-succinyl-1,6-hexanediol ornithine conjugate]
gene expression with increasing amount of DNA/liposome (CHO cells [3]; CHO): gene expression kept increasing | transfection time of highest transfection activity (CHO cells [3]; [8]): 12 h | luciferase gene expression (CHO cells [3]; CHO, 7 μg of DNA): 6.5E+07 | aggregation of transfection complexes [4, 10]: did not aggregate during transfection | transgene expression efficiency (green fluorescence protein) (CHO cells [5]): 6-7% | effect of further increase of liposome amount above 10/1 [7]: caused cytotoxicity and decreased the transfection activity | optimal weight ratio of cationic lipid to DNA in transfection [7]: 10/1 | saturation of system (COS 1 cells; 7 μg of DNA, COS-1 cells): did not reach the saturation | luciferase gene expression (COS 1 cells; COS 1, 7 g of pDNA): 3.84E+08 | transgene expression with increasing complexes (COS 1 cells; COS 1, lipid/DNA 10/1): increased with the increase of DNA/DOGSHDO complexes (p<0.0071) for the system did not reach saturation | luciferase expression, 7 μg of DNA, vs 2 μg of DNA by DOGSDSO (COS 1 cells; COS-1 cells): only one third of that of 2 μg of DNA transferred by DOGSDSO liposome

CCCCCCCC/C=C\CCCCCCCC(=O)OCC(C[N+](C)(C)C)OC(=O)CCCCCCC/C=C\CCCCCCCC (centres unmarked) [DOTAP, 1,2-dioleoyl-3-trimethylammonium-propane, reference compound]
transfection activity from 2 hours to 48 hours transfection time (CHO cells [3]; [8]): not statistically different from 2 hours to 48 hours transfection time (p>0.1220) | aggregation of transfection complexes ([4]; weight ratios of DOTAP to DNA bigger than 2:1): form large aggregates | transgene expression efficiency (green fluorescence protein) (CHO cells [5]): 5-6%
